Reference: paper PMC11940194, “Synthesis, Antiproliferative Activity, and ADME Profiling of Novel Racemic and Optically Pure Aryl-Substituted Purines and Purine Bioisosteres” (Biomolecules, 2025)

Assays:
[1] = test system: breast adenocarcinoma (MCF7) cells; assay: Antiproliferative MTT assay, MCF-7; format: cell-based, human; details: for IC50: Homo sapiens, MCF7, 72 h incubation, MTT, mean ± SD; for SI (MCF-7): SI = [IC50 HFF]/[IC50 MCF-7]
Procedure: (§1) The human ATCC tumor cell lines breast adenocarcinoma (MCF7), colorectal carcinoma (HT-29), pancreatic ductal adenocarcinoma (CFPAC-1), hepatocellular carcinoma (HepG2), and normal skin fibroblasts (HFF) derived from ATCC (American Type Culture Collection) were cultured in Dulbecco’s Modified Eagle Medium (DMEM) or Minimum Essential Medium (MEM) supplemented with 10% fetal bovine serum (FBS), 2 mM L-glutamine, 100 U/mL penicillin, and 100 µg/mL streptomycin (Lonza, Basel, Switzerland) in a humidified atmosphere with 5% CO2 at 37 °C. For the experiment, carcinoma cell lines and normal human cell lines were seeded in 96-well microtiter plates at a density of 3000 cells per well and 5000 cells per well, respectively, depending on the doubling time of the specific cell line. The test substances were then added at fivefold, tenfold dilutions (0.01 to 100 µM), freshly prepared in the growth medium on the day of testing, and incubated for a further 72 h. After 72 h of incubation, the growth rate of the cells was determined using the MTT assay according to the manufacturer’s guidelines. […] The IC50 values were calculated from the dose–response curves using linear regression analysis. The experiment was performed in tetraplicates in two individual experiments.
(§2) Newly synthesized compounds were evaluated for their cytotoxic activity in vitro against four human cancer cell lines, including human breast adenocarcinoma (MCF-7), ductal pancreatic adenocarcinoma (CFPAC-1), colorectal carcinoma (HT-29), and hepatocellular carcinoma (HepG2), as well as on non-cancerous skin fibroblasts (HFF-1), to check for non-specific toxicity. Furthermore, 5-Fluorouracil (5-FU) was used as a reference drug. The results are expressed as 50% inhibitory concentration (IC50) values and are listed in Table 2, Table 3, Table 4 and Table 5.

[2] = test system: pancreatic ductal adenocarcinoma (CFPAC-1) cells; assay: Antiproliferative MTT assay, CFPAC-1; format: cell-based, human; details: for IC50: Homo sapiens, CFPAC-1, 72 h, 72 h incubation, MTT, mean ± SD; for SI (CFPAC-1): SI = [IC50 HFF]/[IC50 CFPAC-1]
Procedure: as §1, §2

[3] = test system: colorectal carcinoma (HT-29) cells; assay: Antiproliferative MTT assay, HT-29; format: cell-based, human; details: for IC50: Homo sapiens, HT-29, 72 h, 72 h incubation, MTT, mean ± SD; for SI (HT-29): SI = [IC50 HFF]/[IC50 HT-29]
Procedure: as §1, §2

[4] = test system: hepatocellular carcinoma (HepG2) cells; assay: Antiproliferative MTT assay, HepG2; format: cell-based, human; details: for IC50: Homo sapiens, HepG2, 72 h, 72 h incubation, MTT, mean ± SD; for SI (HepG2): SI = [IC50 HFF]/[IC50 HepG2]
Procedure: as §1, §2

[5] = test system: P-glycoprotein (human MDR1); assay: MDCKII-MDR1 permeability assay; format: in vitro ADME, canine cells with over-expressed human MDR1 gene; details: dog, MDCK-MDR1
Procedure: MDCKII-hMDR1 cells were obtained from Solvo Biotechnology, Hungary. DMEM, fetal bovine serum, Glutamax-100, Antibiotic/Antimycotic, DMSO, Dulbecco’s phosphate-buffered saline, and MEM Non-essential amino acids were purchased from Sigma (St. Louis, MO, USA). Bi-directional permeability and P-glycoprotein substrate assessments were carried out in Madin-Darby canine epithelial cells with the over-expressed human MDR1 gene (MDCKII-MDR1), coding for P-glycoprotein. Experimental procedures, as well as cell culture conditions, were the same as previously described. Briefly, compounds (10 µM, 1% DMSO v/v) in duplicate were incubated at 37 °C for 60 min with cell monolayer on 24-well Millicell inserts (Millipore, Burlington, MA, USA) with and without the P-glycoprotein inhibitor Elacridar (2 µM, International Laboratory, San Francisco, CA, USA). The inhibition of P-glycoprotein was verified by amprenavir (Moravek Biochemicals Inc, Brea, CA, USA) and monolayer integrity using Lucifer yellow (Sigma, St. Louis, MO, USA). LC-MS/MS measured compound concentrations and Lucifer yellow was measured on an Infinite F500 (Tecan, Männedorf, CH, Switzerland) using excitation of 485 nm and emission of 530 nm.
All samples were quantified using tandem mass spectrometry coupled to liquid chromatography. Samples were analyzed on a Sciex API4000 Triple Quadrupole Mass Spectrometer (Sciex, Division of MDS Inc., Toronto, Canada) coupled to a Shimadzu Nexera X2 UHPLC frontend (Kyoto, Japan). Samples were injected onto a UHPLC column (HALO2 C18, 2.1 × 20 mm, 2 µm or Luna Omega 1.6 µm Polar C18 100A, 30 × 2.1 mm) and eluted with a gradient at 50 °C. The mobile phase was composed of acetonitrile/water mixture (9/1, with 0.1% formic acid) and 0.1% formic acid in deionized water. The flow rate was 0.7 mL/min under gradient conditions, leading to a total run time of 1.5–2 min. A positive ion mode with turbo spray, an ion source temperature of 550 °C, and a dwell time of 150 ms were utilized for mass spectrometric detection. Quantitation was performed using multiple reaction monitoring (MRM) at the specific transitions for each compound.

[6] = test system: normal skin fibroblasts (HFF-1); assay: Cytotoxicity MTT assay, normal skin fibroblasts; format: cell-based, human; details: Homo sapiens, HFF-1, 72 h, 72 h incubation, mean ± SD
Procedure: as §1, §2

Compound	IC50 [1] [µM]	IC50 [2] [µM]	IC50 [3] [µM]	SI (HT-29) [3]	IC50 [4] [µM]	SI (HepG2) [4]	Papp B→A at 60 min, 10 µM ([5]; 10 µM, 60 min, 37 °C) [×10⁻⁶ cm/s]	efflux ratio at 60 min, 10 µM ([5]; <2 no efflux, >2 active efflux)	Papp at 60 min, 10 µM ([5]; permeability class) [×10⁻⁶ cm/s]	IC50 [6] [µM]	SI (MCF-7) [1]	SI (CFPAC-1) [2]
OCC(c1ccc(Br)cc1)n1cc(Cn2cnc3c(Cl)ncnc32)nn1 (centres unmarked) [Compound 39a, 6-Chloro-9-((1-(2-hydroxy-1-(4-bromophenyl)ethyl)-1H-1,2,3-triazol-4-yl)methyl)-9H-purine]	14 ± 4.8	46 ± 3.8	31 ± 2.6	0.5	16 ± 5.6	0.9	58	68.1	≤ 2	14 ± 4.7		
O[C@@H](Cn1cc(Cn2cnc3c(Cl)ncnc32)nn1)c1ccccc1 [Compound (R)-36b, (R)-6-Chloro-9-((1-(2-hydroxy-2-phenylethyl)-1H-1,2,3-triazol-4-yl)methyl)-9H-purine]	61 ± 3.7	66 ± 3.2	86 ± 11.6	>1.2	57 ± 9.7	>1.8				> 100		
O[C@@H](Cn1cc(Cn2cnc3c(Cl)ncnc32)nn1)c1ccc(F)cc1 [Compound (R)-37b, (R)-6-Chloro-9-((1-(2-hydroxy-2-(4-fluorophenyl)ethyl)-1H-1,2,3-triazol-4-yl)methyl)-9H-purine]	> 100	> 100	> 100		64 ± 3.1	0.6				35 ± 5.5		
O[C@@H](Cn1cc(Cn2cnc3c(Cl)ncnc32)nn1)c1ccc(Cl)cc1 [Compound (R)-38b]	64 ± 4.8	60 ± 10.3	51 ± 17.8	0.6	39 ± 10.5	0.8				31 ± 13.4		
O[C@@H](Cn1cc(Cn2ccc3c(Cl)ncnc32)nn1)c1ccccc1 [Compound (R)-41b, (R)-4-Chloro-7-((1-(2-hydroxy-2-phenylethyl)-1H-1,2,3-triazol-4-yl)methyl)-7H-pyrrolo[2,3-d]pyrimidine]	46 ± 2.7	58 ± 12.1	46 ± 2.3		52 ± 2.7					23 ± 5.8	0.5	0.4
O[C@@H](Cn1cc(Cn2ccc3c(Cl)ncnc32)nn1)c1ccc(F)cc1 [Compound (R)-42b, (R)-4-Chloro-7-((1-(2-hydroxy-2-(4-fluorophenyl)ethyl)-1H-1,2,3-triazol-4-yl)methyl)-7H-pyrrolo[2,3-d]pyrimidine]	60 ± 1.2	20 ± 0.9	27 ± 1.4		32 ± 6.04					24 ± 2.4	0.4	1.2
O[C@@H](Cn1cc(Cn2ccc3c(Cl)ncnc32)nn1)c1ccc(Cl)cc1 [Compound (R)-43b, (R)-4-Chloro-7-((1-(2-hydroxy-2-(4-chlorophenyl)ethyl)-1H-1,2,3-triazol-4-yl)methyl)-7H-pyrrolo[2,3-d]pyrimidine]	35 ± 1.9	32 ± 16.1	48 ± 4.8		26 ± 8.2					20 ± 6.5	0.6	0.6
O[C@@H](Cn1cc(Cn2ccc3c(Cl)ncnc32)nn1)c1ccc(C(F)(F)F)cc1 [Compound (R)-45b, (R)-4-Chloro-7-((1-(2-hydroxy-2-(4-(trifluoromethyl)phenyl)ethyl)-1H-1,2,3-triazol-4-yl)methyl)-7H-pyrrolo[2,3-d]pyrimidin]	43 ± 4.6	49 ± 8.7	45 ± 4		38 ± 7.6					21 ± 3.8	0.5	0.4
O[C@H](Cn1cc(Cn2cnc3c(Cl)ncnc32)nn1)c1ccccc1 [Compound (S)-36b, (S)-6-Chloro-9-((1-(2-hydroxy-2-phenylethyl)-1H-1,2,3-triazol-4-yl)methyl)-9H-purine]	33 ± 5.8	32 ± 5.3	48 ± 4.8	>2.1	21 ± 0.8	>4.8				> 100		
O[C@H](Cn1cc(Cn2cnc3c(Cl)ncnc32)nn1)c1ccc(F)cc1 [Compound (S)-37b, (S)-6-Chloro-9-((1-(2-hydroxy-2-(4-fluorophenyl)ethyl)-1H-1,2,3-triazol-4-yl)methyl)-9H-purine]	73 ± 2.9	65 ± 5.4	24 ± 2.9	2.9	45 ± 1.9	1.6				70 ± 19.5		
O[C@H](Cn1cc(Cn2cnc3c(Cl)ncnc32)nn1)c1ccc(Cl)cc1 [Compound (S)-38b]	58 ± 1.9	51 ± 11.7	47 ± 16.8	1.7	28 ± 7.5	2.9				81 ± 1.8		
O[C@H](Cn1cc(Cn2ccc3c(Cl)ncnc32)nn1)c1ccccc1 [Compound (S)-41b, (S)-4-Chloro-7-((1-(2-hydroxy-2-phenylethyl)-1H-1,2,3-triazol-4-yl)methyl)-7H-pyrrolo[2,3-d]pyrimidine]	45 ± 7.2	49 ± 18.5	41 ± 5.6		41 ± 12.4					58 ± 3.1	1.3	1.2
O[C@H](Cn1cc(Cn2ccc3c(Cl)ncnc32)nn1)c1ccc(F)cc1 [Compound (S)-42b, (S)-4-Chloro-7-((1-(2-hydroxy-2-(4-fluorophenyl)ethyl)-1H-1,2,3-triazol-4-yl)methyl)-7H-pyrrolo[2,3-d]pyrimidine]	41	13 ± 2.7	33 ± 0.2		49 ± 2					73 ± 2.4	1.8	5.6
O[C@H](Cn1cc(Cn2ccc3c(Cl)ncnc32)nn1)c1ccc(Cl)cc1 [Compound (S)-43b, (S)-4-Chloro-7-((1-(2-hydroxy-2-(4-chlorophenyl)ethyl)-1H-1,2,3-triazol-4-yl)methyl)-7H-pyrrolo[2,3-d]pyrimidine]	33 ± 5.8	31 ± 5.3	33 ± 7.8		21 ± 0.8					41 ± 1.1	1.2	1.3
O[C@H](Cn1cc(Cn2ccc3c(Cl)ncnc32)nn1)c1ccc(C(F)(F)F)cc1 [Compound (S)-45b, (S)-4-Chloro-7-((1-(2-hydroxy-2-(4-(trifluoromethyl)phenyl)ethyl)-1H-1,2,3-triazol-4-yl)methyl)-7H-pyrrolo[2,3-d]pyrimidin]	26 ± 8.5	43 ± 10.8	31 ± 2.2		23 ± 2.3					43 ± 3.9	1.7	1.0
